# Assay results reported in patent publication US11840570B2, “Pharmaceutical combination and method for regulation of tumor microenvironment and immunotherapy” (Great Novel Therapeutics Biotech & Medicals Corporation, priority 2018, dated 2023).
# Test system: CT26 colon tumor
# Assay: Anti-cancer activity in CT26 tumor-bearing BALB/c mice
# Assay type: in vivo, mouse
# Conditions: anti-PD-1 10 mg/kg, chidamide 50 mg/kg, metformin 100 mg/kg
# Protocol: Animal research was approved and overseen by The Taipei Medical University Institutional Animal Care and Use Committee (TMU IACUC). Six- to eight-wk-old male BALB/C mice (BioLASCO Taiwan) were used for all animal experiments. JC (1×10^7), or CT26 (5×10^6˜1×10^7) cancer cells were inoculated by s.c. into the right flank of each mouse. Tumors were allowed to grow for 11 d (tumor size about 200-300 mm^3) before randomization and treatment. CT26-bearing and JC-bearing mice were given 10 or 2.5 mg/kg of anti-IgG, anti-PD-1 and/or anti-PD-L1 and anti-CTLA-4 (2.5 mg/kg) antibodies i.p. on days 11, 14, 17, 20, 23, and 26 post-tumor implantation, and all antibodies were diluted to appropriate concentrations in 100 μL of sterile PBS (pH 7.4) (Invitrogen Life Technologies). Celecoxib, chidamide, metformin, mocetinostat, entinostat, aspirin, and ibuprofen treatments were administrated orally on day 11 post-tumor implantation. Daily treatment with celecoxib (12.5, 25.0, and 50 mg/kg) or metformin (100 or 200 mg/kg) was performed from days 11 to 26. Chidamide was administered to treat tumor bearing mice at doses of 6.25, 12.5, 25, and 50 mg/kg or as a single dose. Chidamide was orally administered daily from days 11 to 26. Entinostat was orally administered at a dose of 20 mg/kg every two days from days 11 to 25. Mocetinostat was orally administered at a dose of 30 mg/kg daily treatment from days 11 to 26. Aspirin and ibuprofen was orally administered at a dose of 50 mg/kg daily treatment from days 11 to 26. The anti-cancer activity was measured from the start of the treatment of tumor growth until the tumor volume reached 3,000 mm^3. Tumor volume was calculated as length×width^2×0.5.
# To understand the anti-cancer activity of anti-PD-1 antibody on the CT-26 colon cancer cell -bearing BALB/c mice, the anti-PD-1 antibody was administered into CT26-bearing mice at 10 mg/kg of anti-PD-1 and/or anti-IgG antibodies i.p. on days 11, 14, 17, 20, 23, and 26 of post tumor implantation. […] The response rate was evaluated by several assays.
smiles,measurement,setting,value
CN(C)C(=N)N=C(N)N [metformin],tumor growth inhibition / anti-cancer activity,FIG. 2A/2B,markedly inhibited
same,mice with PD,"FIG. 2B, entinostat 20 mg/kg",five
same,mice with SD,"FIG. 2B, entinostat 20 mg/kg",one
